In US8765730B2 (Hoffmann-La Roche Inc, priority 2010, dated 2014):

molecular target: T1, human GPBAR1 receptor (Homo sapiens, UniProt Q8TDU6); assay: functional cAMP assay in CHO-dhfr(minus) cells expressing human GPBAR1 receptors; format: cell-based; settings: functional cAMP assay, 30 min at 30° C., read-out: human EC50
T1 construct: expressed in transfected cells
T1 sequence (Q8TDU6 1-330): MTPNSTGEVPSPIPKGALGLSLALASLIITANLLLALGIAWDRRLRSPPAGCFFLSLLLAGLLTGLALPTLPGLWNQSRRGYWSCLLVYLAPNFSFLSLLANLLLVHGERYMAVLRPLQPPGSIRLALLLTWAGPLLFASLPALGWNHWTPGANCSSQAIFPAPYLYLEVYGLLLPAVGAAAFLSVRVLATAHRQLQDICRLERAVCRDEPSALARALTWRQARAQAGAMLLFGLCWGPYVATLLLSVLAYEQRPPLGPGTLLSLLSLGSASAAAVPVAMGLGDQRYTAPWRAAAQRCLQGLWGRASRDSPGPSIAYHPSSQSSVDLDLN
Outline: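 Agonist cAMP read-out: stable GPBAR1 CHO-dhfr− clone, 30 min compound exposure at 30° C following 30 min IBMX (1 mM) preincubation in Krebs Ringer bicarbonate. Time-resolved energy-transfer detection gives EC50; parental CHO cells serve as counter-screen.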

EC50 | SMILES
549 nM | O/N=C(\CC(O)(c1ccccc1)c1ccccc1)c1ccncc1 [Example 154, (E)-3-Hydroxy-3,3-diphenyl-1-pyridin-4-yl-propan-1-one oxime]

same assay, conditions: human EC50, functional cAMP assay, 30 min at 30° C.

SMILES | EC50
Cc1cc(/C(CC(c2ccc(-c3ccc(C(=O)O)c(F)c3)cc2)c2ccccc2C(F)(F)F)=N/O)ccn1 (centres unmarked) [Example 135, 3-Fluoro-4′-[3-[(E)-hydroxyimino]-3-(2-methyl-pyridin-4-yl)-1-(2-trifluoromethyl-phenyl)-propyl]-biphenyl-4-carboxylic acid] | 29 nM
Cc1cc(/C(C[C@H](c2ccc(-c3ncco3)cc2)c2ccccc2C)=N/O)ccn1 [Example 423] | 2 nM
Cn1cc(/C(C[C@H](c2ccc(-c3ccc(C(=O)O)s3)cc2)c2ccc(Cl)cc2F)=N/O)ccc1=O [Example 468, 5-{4-[(−)-1-(4-Chloro-2-fluoro-phenyl)-3-[(E)-hydroxyimino]-3-(1-methyl-6-oxo-1,6-dihydro-pyridin-3-yl)-propyl]-phenyl}-thiophene-2-carboxylic acid] | 349 nM
Cc1cc(/C(C[C@H](c2ccc(N3CCC(C(=O)NCCS(=O)(=O)O)CC3)cc2)c2ccccc2C)=N/O)ccn1 [Example 370, (R,E)-2-(1-(4-(3-(hydroxyimino)-3-(2-methylpyridin-4-yl)-1-o-tolylpropyl)phenyl)-piperidine-4-carboxamido)ethanesulfonic acid] | 1 nM
Cn1cc(/C(CC(c2ccc(-c3ccc(CC(=O)O)cc3)cc2)c2ccc(Cl)cc2F)=N/O)ccc1=O (single isomer, unassigned) [Example 462, {4′-[(+)-1-(4-chloro-2-fluoro-phenyl)-3-[(E)-hydroxyimino]-3-(1-methyl-6-oxo-1,6-dihydro-pyridin-3-yl)-propyl]-biphenyl-4-yl}-acetic acid] | 153 nM
Cn1cc(/C(CC(c2ccc(-c3ccc(C(=O)O)cc3)cc2)c2ccc(Cl)cc2F)=N/O)ccc1=O (centres unmarked) [Example 238, 4′-[1-(4-Chloro-2-fluoro-phenyl)-3-[(E)-hydroxyimino]-3-(1-methyl-6-oxo-1,6-dihydro-pyridin-3-yl)-propyl]-biphenyl-4-carboxylic acid] | 23 nM
Cc1cc(/C(C[C@H](c2ccc(-c3nnc(C4CCOCC4)o3)cc2)c2ccccc2C)=N/O)ccn1 [Example 421, ((−), E)-1-(2-Methyl-pyridin-4-yl)-3-{4-[5-(tetrahydro-pyran-4-yl)-[1,3,4]oxadiazol-2-yl]-phenyl}-3-o-tolyl-propan-1-one oxime] | 30 nM
CC(/C(=N\O)c1ccncc1)C(c1ccccc1)c1ccccc1 (centres unmarked) [Example 153, (E)-2-Methyl-3,3-diphenyl-1-pyridin-4-yl-propan-1-one oxime] | 151 nM
Cc1cc(Cl)ccc1C(C/C(=N\O)c1ccc(=O)n(C)c1)c1ccc(C(=O)NCCS(C)(=O)=O)cc1 (centres unmarked) [Example 336, (E)-4-(1-(4-Chloro-2-methylphenyl)-3-(hydroxyimino)-3-(1-methyl-6-oxo-1,6-dihydropyridin-3-yl)propyl)-N-(2-(methylsulfonyl)ethyl)benzamide] | 330 nM
Cc1ccccc1C(C/C(=N\O)c1ccc(=O)n(C)c1)c1ccc(C(=O)NC(CO)CO)cc1 (centres unmarked) [Example 304, (E)-N-(1,3-Dihydroxypropan-2-yl)-4-(3-(hydroxyimino)-3-(1-methyl-6-oxo-1,6-dihydropyridin-3-yl)-1-o-tolylpropyl)benzamide] | 506 nM
Cc1cc(/C(C[C@H](c2ccc(-c3nnc(C)o3)cc2)c2ccccc2C)=N/O)ccn1 [Example 417, ((−), E)-3-[4-(5-Methyl-[1,3,4]oxadiazol-2-yl)-phenyl]-1-(2-methyl-pyridin-4-yl)-3-o-tolyl-propan-1-one oxime] | 8 nM
Cn1cc(/C(CC(c2ccc(-c3ccc(C(=O)O)cc3)cc2)c2ccccc2F)=N/O)ccc1=O (centres unmarked) [Example 244, (E)-4′-(1-(2-Fluorophenyl)-3-(hydroxyimino)-3-(1-methyl-6-oxo-1,6-dihydropyridin-3-yl)propyl)biphenyl-4-carboxylic acid] | 260 nM
Cc1cc(/C(CC(c2ccc(-c3ccc(C(=O)O)cc3)cc2)c2ccc(F)cc2C)=N/O)ccn1 (centres unmarked) [Example 141, (E)-4′-(1-(4-Fluoro-2-methylphenyl)-3-(hydroxyimino)-3-(2-methylpyridin-4-yl)propyl)biphenyl-4-carboxylic acid] | 8 nM
Cc1cc(Cl)ccc1[C@@H](C/C(=N\O)c1ccc(=O)n(C)c1)c1ccc(-c2ccc(S(N)(=O)=O)cc2)cc1 (single isomer, unassigned) [Example 414, (+)-4′-[1-(4-Chloro-2-methyl-phenyl)-3-[(E)-hydroxyimino]-3-(1-methyl-6-oxo-1,6-dihydro-pyridin-3-yl)-propyl]-biphenyl-4-sulfonic acid amide] | 18 nM
Cc1ccccc1C(C/C(=N\O)c1cncc(Br)c1)c1cccc(Br)c1 (centres unmarked) [Example 123, (E)-3-(3-Bromo-phenyl)-1-(5-bromo-pyridin-3-yl)-3-o-tolyl-propan-1-one oxime] | 4540 nM
Cc1cc(/C(CC(c2ccccc2)c2ccccn2)=N/O)cc(C)n1 (centres unmarked) [Example 68, (E)-1-(2,6-Dimethyl-pyridin-4-yl)-3-phenyl-3-pyridin-2-yl-propan-1-one oxime] | 341 nM

Second part, the molecule after the results:

EC50 | SMILES
5120 nM | Cc1ccccc1C(C/C(=N\O)c1cc(C)c(O)c(C)c1)c1ccc(Br)cc1 (centres unmarked) [Example 152, (E)-3-(4-Bromo-phenyl)-1-(4-hydroxy-3,5-dimethyl-phenyl)-3-o-tolyl-propan-1-one oxime]
4360 nM | Cc1ccccc1C(C/C(=N\O)c1cc(F)cc(F)c1F)c1ccc(Br)cc1 (centres unmarked) [Example 48, (E)-3-(4-Bromo-phenyl)-3-o-tolyl-1-(2,3,5-trifluoro-phenyl)-propan-1-one oxime]
4100 nM | Cc1ccccc1C(C/C(=N\O)c1ccc(=O)n(C)c1)c1ccc(C(=O)N[C@H](C)CO)cc1 (stereo partly drawn) [Example 301, 4-((E)-3-(Hydroxyimino)-3-(1-methyl-6-oxo-1,6-dihydropyridin-3-yl)-1-o-tolylpropyl)-N-((R)-1-hydroxypropan-2-yl)benzamide]
3450 nM | Cn1cc(/C(CC(Cc2ccc(OC(F)(F)F)cc2)c2ccc(Br)cc2)=N/O)ccc1=O (centres unmarked) [Example 180, 5-[3-(4-Bromo-phenyl)-1-[(E)-hydroxyimino]-4-(4-trifluoromethoxy-phenyl)-butyl]-1-methyl-1H-pyridin-2-one]
2190 nM | CS(=O)(=O)c1ccc(-c2cccc(C(C/C(=N\O)c3ccncc3)c3ccccc3)c2)cc1 (centres unmarked) [Example 24, (E)-3-(4′-Methanesulfonyl-biphenyl-3-yl)-3-phenyl-1-pyridin-4-yl-propan-1-one oxime]
1310 nM | O=c1ccc(/C(CC(c2ccccc2)c2ccccc2)=N/O)c[nH]1 [Example 160, 5-{1-[(E)-Hydroxyimino]-3,3-diphenyl-propyl}-1H-pyridin-2-one]
711 nM | Cc1ccccc1C(C/C(=N\O)c1ccc(=O)n(C)c1)c1ccc(C(=O)N2CCOCC2)cc1 (centres unmarked) [Example 207, 5-{1-[(E)-Hydroxyimino]-3-[4-(morpholine-4-carbonyl)-phenyl]-3-o-tolyl-propyl}-1-methyl-1H-pyridin-2-one]
365 nM | Cc1ccccc1[C@H](C/C(=N\O)c1ccnc(C(F)(F)F)c1)c1ccc(-c2ccc(C(=O)O)cc2)cc1 [Example 291, 4′-[(R)-3-[(E)-Hydroxyimino]-1-o-tolyl-3-(2-trifluoromethyl-pyridin-4-yl)-propyl]-biphenyl-4-carboxylic acid]
153 nM | Cc1cc(C(CC(c2cccc(CCCO)c2)c2ccccc2C)=NO)ccn1 (racemic) [Example 107, 3-[3-(3-Hydroxy-propyl)-phenyl]-1-(2-methyl-pyridin-4-yl)-3-o-tolyl-propan-1-one oxime]
110 nM | Cc1cc(Cl)ccc1C(C/C(=N\O)c1ccc(=O)n(C)c1)c1ccc(N2CCCC2=O)cc1 (centres unmarked) [Example 355, 5-{3-(4-Chloro-2-methyl-phenyl)-1-[(E)-hydroxyimino]-3-[4-(2-oxo-pyrrolidin-1-yl)-phenyl]-propyl}-1-methyl-1H-pyridin-2-one]
81 nM | Cn1cc(/C(CC(c2ccc(S(C)(=O)=O)cc2)c2cc(Cl)cc(Cl)c2)=N/O)ccc1=O (centres unmarked) [Example 352, (E)-5-(3-(3,5-Dichlorophenyl)-1-(hydroxyimino)-3-(4-(methylsulfonyl)phenyl)propyl)-1-methylpyridin-2(1H)-one]
59 nM | COC(=O)c1ccc(-c2ccc(C(C/C(=N\O)c3ccnc(C)c3)c3ccc(Cl)cc3F)cc2)cc1F (centres unmarked) [Example 446, 4′-[1-(4-Chloro-2-fluoro-phenyl)-3-[(E)-hydroxyimino]-3-(2-methyl-pyridin-4-yl)-propyl]-3-fluoro-biphenyl-4-carboxylic acid methyl ester]
43 nM | Cc1ccccc1C(C/C(=N\O)c1ccc(=O)n(C)c1)c1ccc(Oc2cccc(C(=O)O)c2)cc1F (centres unmarked) [Example 235, 3-{3-Fluoro-4-[3-[(E)-hydroxyimino]-3-(1-methyl-6-oxo-1,6-dihydro-pyridin-3-yl)-1-o-tolyl-propyl]-phenoxy}-benzoic acid]
28 nM | Cc1cc(/C(C[C@H](c2ccc(O)cc2)c2ccccc2C)=N/O)ccn1 [Example 363, (R)-3-(4-Hydroxy-phenyl)-1-(2-methyl-pyridin-4-yl)-3-o-tolyl-propan-1-one oxime]
10 nM | Cc1cc(/C(C[C@H](c2ccc(C3CN(S(C)(=O)=O)C3)cc2)c2ccccc2C)=N/O)ccn1 [Example 484, (R,E)-1-(2-Methylpyridin-4-yl)-3-(4-(1-(methylsulfonyl)azetidin-3-yl)phenyl)-3-o-tolylpropan-1-one oxime]
